Reference: patent US20200297711A1, “PHARMACEUTICAL COMPOSITION COMPRISING FGFR SELECTIVE TYROSINE KINASE INHIBITOR” (priority 2017, published 2020)
Marks after values point to notes of the source that are not given here.

Assays:
[1] = Pharmacokinetics in plasma following single dose and repeated doses of Compound A 1.5 succinate; type: in vivo, human; details: for AUC(0-t) / Cavg / Cmax / Cmin / tmax / tmax, median (minimum − maximum) / AUC(0-inf) / CL/F / t1/2: Compound A
Method: In order to evaluate the PK when administered as a single dose, a single dose of Compound A for each treatment group (at the corresponding dosage for that group) was administered on Day 1. Compound A was administered when fasted, immediately after waking up with at least 10 hours fasting. Taking any meal was prohibited for 2 hours after administration and only drinking water was allowed.
Cycle 1 was started between 8 and 10 days after dosing in Cycle 0 and Compound A was administered continuously once daily. Compound A was administered at least 2 hours after breakfast, and any food intake was prohibited for 1 hour after administration. However, on Day 8 of Cycle 1, Compound A was administered immediately after waking up while the subject was fasted after at least 10 hours of overnight fasting in order to evaluate the PK. Taking any meals was prohibited for 2 hours after administration and only drinking water was allowed.
Plasma concentration profile of Compound A following a single dose and repeated doses of Compound A 1.5 succinate are shown in FIG. 1 and FIG. 2, respectively. The profile shown in FIG. 2 is that at steady state.
(§1) The pharmacokinetic parameters of Compound A following the single dose and repeated doses of Compound A 1.5 succinate are shown in the following table. The pharmacokinetic parameters of Compound A following repeated doses of Compound A 1.5 succinate shown below are those at steady state.
as §1, with “1.5 succinate updated after obtaining the above data are shown” for “1.5 succinate are shown”
The pharmacokinetic parameters of Compound B following the single dose and repeated doses of Compound A 1.5 succinate are shown in the following table. The pharmacokinetic parameters of Compound B following repeated doses of Compound A 1.5 succinate shown below are those at steady state.

[2] = test system: FGFR2 gene amplified diffused type gastric cancer; assay: Anti-tumor activity, tumor size on CT images, patient; type: in vivo, human; details: 180 mg once daily, one patient, Day 1 of Cycle 3 vs before administration
Method: Compound A was administered once daily at 180 mg to a patient with FGFR2 gene amplified diffused type gastric cancer (poorly differentiated adenocarcinoma). The left image is that before the administration and the right image is that on Day 1 of Cycle 3.

[3] = test system: FGFR pathway; assay: Pharmacodynamics: serum Phosphate, FGF23 and 1,25-(OH)2-Vitamin D, PD markers of FGFR pathway inhibition; type: in vivo, human
Method: Serum concentrations of Phosphate, FGF23 and 1,25-(OH)2-Vitamin D, PD markers of FGFR pathway inhibition were measured before the administration of Compound A and on Day 15 of Cycle 1.

[4] = test system: fibroblast growth factor receptors (FGFRs) 1, 2 and 3; details: reported in PTL 1; cited from earlier work
[5] = repeated once-daily doses 30 mg, steady state (n = 2), Table 4
[6] = repeated once-daily doses 30 mg, steady state (n = 2), Table 5 (updated)
[7] = repeated once-daily doses 60 mg, steady state (n = 2), Table 4
[8] = repeated once-daily doses 60 mg, steady state (n = 2), Table 5 (updated)
[9] = repeated once-daily doses 100 mg, steady state (n = 3), Table 4
[10] = repeated once-daily doses 100 mg, steady state (n = 3), Table 5 (updated)
[11] = repeated once-daily doses 140 mg, steady state (n = 3), Table 4
[12] = repeated once-daily doses 140 mg, steady state (n = 3), Table 5 (updated)
[13] = repeated once-daily doses 180 mg, steady state (n = 3), Table 4
[14] = repeated once-daily doses 180 mg, steady state (n = 3), Table 5 (updated)
[15] = single dose 30 mg (n = 2), Table 4
[16] = single dose 30 mg (n = 2), Table 5 (updated)
[17] = single dose 60 mg (n = 3), Table 4
[18] = single dose 60 mg (n = 3), Table 5 (updated)
[19] = single dose 100 mg (n = 3), Table 4
[20] = single dose 100 mg (n = 3), Table 5 (updated)
[21] = single dose 140 mg (n = 3), Table 4
[22] = single dose 140 mg (n = 3), Table 5 (updated)
[23] = single dose 180 mg (n = 3), Table 4
[24] = single dose 180 mg (n = 3), Table 5 (updated)

CNC(=O)n1ccc2cc(Oc3ccnc(NC(=O)c4ccc(C5CCN(CCO)CC5)cc4)c3)c(OCCOC)cc21 [Compound A, 5-((2-(4-(1-(2-hydroxyethyl)piperidin-4-yl)benzamide)pyridin-4-yl)oxy)-6-(2-methoxyethoxy)-N-methyl-1H-indole-1-carboxamide]
metabolism in human subjects ([1]; Compound A administered to human subjects): metabolized in the body to produce Compound B
AUC(0-t) [1, 5]: 158 ng·h/mL
Cavg [1, 5]: 6.58 ng/mL
Cmax [1, 5]: 13.3 ng/mL
Cmin [1, 5]: 2.48 ng/mL
tmax [1, 5]: 4 (3-5) h
AUC(0-t) [1, 6]: 162 ng·h/mL
Cavg [1, 6]: 6.75 ng/mL
Cmax [1, 6]: 13.3 ng/mL
Cmin [1, 6]: 4.50 ng/mL
tmax, median (minimum − maximum) [1, 6]: 3.99 (3.00-4.97) h
AUC(0-t) [1, 7]: 499^a^ h · ng/mL
Cavg [1, 7]: 20.8^a ng/mL
Cmax [1, 7]: 50.5^a ng/mL
Cmin [1, 7]: 8.28^a ng/mL
tmax [1, 7]: 2.5 (2-3)^a h
AUC(0-t) [1, 8]: 507^a^ h · ng/mL
Cavg [1, 8]: 21.1^a ng/mL
Cmax [1, 8]: 50.5^a ng/mL
Cmin [1, 8]: 11.0^a ng/mL
tmax, median (minimum − maximum) [1, 8]: 2.54 (2.07-3.00) ^a h
AUC(0-t) [1, 9]: 1330 ± 417 ng·h/mL
Cavg [1, 9]: 55.2 ± 17.3 ng/mL
Cmax [1, 9]: 116 ± 3.79 ng/mL
Cmin [1, 9]: 18.7 ± 7.95 ng/mL
tmax [1, 9]: 3 (2-5) h
AUC(0-t) [1, 10]: 1340 ± 437 ng·h/mL
Cavg [1, 10]: 55.91 ± 8.2 ng/mL
Cmax [1, 10]: 116 ± 3.79 ng/mL
Cmin [1, 10]: 22.3 ± 8.48 ng/mL
tmax, median (minimum − maximum) [1, 10]: 2.97 (2.03-5.00) h
AUC(0-t) [1, 11]: 4700 ± 3380 ng·h/mL
Cavg [1, 11]: 196 ± 141 ng/mL
Cmax [1, 11]: 372 ± 173 ng/mL
Cmin [1, 11]: 101 ± 94.5 ng/mL
tmax [1, 11]: 5 (3-5) h
AUC(0-t) [1, 12]: 4700 ± 3380 ng·h/mL
Cavg [1, 12]: 196 ± 141 ng/mL
Cmax [1, 12]: 372 ± 173 ng/mL
Cmin [1, 12]: 117 ± 116 ng/mL
tmax, median (minimum − maximum) [1, 12]: 5.00 (2.98-5.08) h
AUC(0-t) [1, 13]: 3850 ± 777 ng·h/mL
Cavg [1, 13]: 161 ± 32.3 ng/mL
Cmax [1, 13]: 337 ± 60.3 ng/mL
Cmin [1, 13]: 61.4 ± 19.9 ng/mL
tmax [1, 13]: 5 (3-5) h
AUC(0-t) [1, 14]: 3860 ± 764 ng·h/mL
Cavg [1, 14]: 161 ± 32.3 ng/mL
Cmax [1, 14]: 337 ± 60.3 ng/mL
Cmin [1, 14]: 64.8 ± 19.4 ng/mL
tmax, median (minimum − maximum) [1, 14]: 5.00 (3.05-5.08) h
AUC(0-inf) [1, 15]: 236 ng·h/mL
AUC(0-t) [1, 15]: 220 ng·h/mL
CL/F [1, 15]: 128 L/h
Cmax [1, 15]: 28.1 ng/mL
t1/2 [1, 15]: 22.8 h
tmax [1, 15]: 3 (1-5) h
AUC(0-inf) [1, 16]: 239 ng·h/mL
AUC(0-t) [1, 16]: 222 ng·h/mL
CL/F [1, 16]: 127 L/h
Cmax [1, 16]: 28.1 ng/mL
t1/2 [1, 16]: 22.7 h
tmax, median (minimum − maximum) [1, 16]: 3.04 (0.93-5.15) h
AUC(0-inf) [1, 17]: 551 ± 240 ng·h/mL
AUC(0-t) [1, 17]: 529 ± 250 ng·h/mL
CL/F [1, 17]: 122 ± 42.5 L/h
Cmax [1, 17]: 38.7 ± 4.69 ng/mL
t1/2 [1, 17]: 23.1 ± 7.65 h
tmax [1, 17]: 3 (3-5) h
AUC(0-inf) [1, 18]: 554 ± 247 ng·h/mL
AUC(0-t) [1, 18]: 533 ± 257 ng·h/mL
CL/F [1, 18]: 121 ± 43.1 L/h
Cmax [1, 18]: 38.7 ± 4.69 ng/mL
t1/2 [1, 18]: 23.1 ± 7.63 h
tmax, median (minimum − maximum) [1, 18]: 3.00 (2.97-4.98)^ h
AUC(0-inf) [1, 19]: 1120 ± 488 ng·h/mL
AUC(0-t) [1, 19]: 1090 ± 483 ng·h/mL
CL/F [1, 19]: 103 ± 48.9 L/h
Cmax [1, 19]: 85.9 ± 30.8 ng/mL
t1/2 [1, 19]: 15.1 ± 1.77 h
tmax [1, 19]: 5 (3-5) h
AUC(0-inf) [1, 20]: 1120 ± 479 ng·h/mL
AUC(0-t) [1, 20]: 1080 ± 474 ng·h/mL
CL/F [1, 20]: 103 ± 48.2 L/h
Cmax [1, 20]: 85.9 ± 30.8 ng/mL
t1/2 [1, 20]: 15.2 ± 1.84 h
tmax, median (minimum − maximum) [1, 20]: 4.95 (2.97-5.10) h
AUC(0-inf) [1, 21]: 4000 ± 3340 ng·h/mL
AUC(0-t) [1, 21]: 3900 ± 3230 ng·h/mL
CL/F [1, 21]: 60.4 ± 51.6 L/h
Cmax [1, 21]: 227 ± 118.0 ng/mL
t1/2 [1, 21]: 26.4 ± 12.2 h
tmax [1, 21]: 5 (3-5) h
AUC(0-inf) [1, 22]: 4050 ± 3340 ng·h/mL
AUC(0-t) [1, 22]: 3960 ± 3230 ng·h/mL
CL/F [1, 22]: 59.0 ± 50.2 L/h
Cmax [1, 22]: 227 ± 118 ng/mL
t1/2 [1, 22]: 26.4 ± 12.4 h
tmax, median (minimum − maximum) [1, 22]: 4.88 (3.00-5.08) h
AUC(0-inf) [1, 23]: 2570 ± 907 ng·h/mL
AUC(0-t) [1, 23]: 2540 ± 924 ng·h/mL
CL/F [1, 23]: 75.0 ± 22.0 L/h
Cmax [1, 23]: 154 ± 38.4 ng/mL
t1/2 [1, 23]: 23.6 ± 10.2 h
tmax [1, 23]: 2 (2-5) h
AUC(0-inf) [1, 24]: 2610 ± 921 ng·h/mL
AUC(0-t) [1, 24]: 2570 ± 933 ng·h/mL
CL/F [1, 24]: 74.2 ± 21.8 L/h
Cmax [1, 24]: 154 ± 38.4 ng/mL
t1/2 [1, 24]: 23.7 ± 10.4 h
tmax, median (minimum − maximum) [1, 24]: 2.12 (1.95-5.00) h
tumor size [2]: reduced significantly
once-daily dosing at which increases of PD markers reached maximum ([3]; Day 15 of Cycle 1): 100 to 140 mg
change in serum Phosphate, FGF23 and 1,25-(OH)2-Vitamin D ([3]; Day 15 of Cycle 1 vs before administration): dose-dependent increases in each marker
inhibitory activity on FGFRs 1, 2 and 3 [4]: has an inhibitory activity
